# Where two headings read alike, the source gives them in different places.
# Molecular target: T1, human enzyme NAMPT (full length) (Homo sapiens, UniProt P43490)
# T1 construct: human enzyme NAMPT (full length)
# Assay: NMN fluorescence biochemical assay (stimulation of NMN synthesis by NAMPT)
# Conditions: for EC50: concentration giving half-maximal activation, read-out: Enzymatic EC50; for Enzymatic Emax: fold change of maximal activation compared to DMSO
# Description: Certain compounds described herein were assayed for their ability to stimulate the synthesis of nicotinamide mononucleotide (NMN) by human enzyme NAMPT (full length). The enzymatic assay was performed in a 384-well plate using a TMD buffer (50 mM Tris-HCl, 10 mM MgCl2, 2 mM DTT, pH 7.5). Purified NAMPT (100 nM) was pre-incubated with 0.2 μL. DMSO solution of the test compound (with a series of concentrations) in 10 μL TMD buffer for 15 min at 37° C. The reaction was initiated by adding 10 μL solution of NAM (50 μM), PRPP (100 μM), and ATP (4 mM) in TMD buffer. After 1 h of incubation at 37 T, an aliquot (20 μL) of the NMN-containing sample was sequentially mixed with 5 μL of 20% acetophenone (in DMSO) and 5 μL of 2M KOH. The mixture was placed on ice for 10 min. Next, 22.5 μL of 100% formic acid was added to each sample, vortexed, and then incubated at 37° C. for 20 min. Fluorescence (Ex/Em=382/445 nm) was measured using an Envision plate reader. The potency measurements for the test compounds were quantified and represented as EC50 (concentration of a compound that gives half-maximal activation) and Emax (fold change of a compound's maximal activation compared to DMSO).
# [1] = NMN synthesis by purified human NAMPT (100 nM)
# [2] = NMN fluorescence assay, purified human NAMPT 100 nM
# T1 sequence (P43490 whole entry): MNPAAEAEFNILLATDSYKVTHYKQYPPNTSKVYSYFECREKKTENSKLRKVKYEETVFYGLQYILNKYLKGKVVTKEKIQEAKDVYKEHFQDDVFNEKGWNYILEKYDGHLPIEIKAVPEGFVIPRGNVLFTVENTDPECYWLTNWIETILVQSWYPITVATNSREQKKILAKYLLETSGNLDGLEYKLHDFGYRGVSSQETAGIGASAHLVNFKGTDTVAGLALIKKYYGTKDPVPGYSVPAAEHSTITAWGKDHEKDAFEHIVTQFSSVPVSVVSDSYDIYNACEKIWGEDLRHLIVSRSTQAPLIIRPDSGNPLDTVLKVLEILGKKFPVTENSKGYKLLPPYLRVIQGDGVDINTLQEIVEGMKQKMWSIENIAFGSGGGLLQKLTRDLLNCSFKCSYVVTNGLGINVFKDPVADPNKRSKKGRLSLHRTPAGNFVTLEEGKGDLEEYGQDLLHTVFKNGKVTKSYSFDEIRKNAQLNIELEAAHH
EC50 [1],Enzymatic Emax,EC50 [2],Structure (SMILES)
≥ 5 µM,C (2≥C),,"O=C1c2ccccc2C(Cc2ncccc2Br)N1Cc1ccc2c(c1)nnn2O (stereo not drawn) [Compound 288, 3-((3-bromopyridin-2-yl)methyl)-2-((1-hydroxy-1H-benzo[d][1,2,3]triazol-5-yl)methyl) isoindolin-1-one]"
0.5 to 5 µM,B (3≥B>2),,"O=C1c2ccccc2C(Cc2ccc(Cl)cn2)N1Cc1ccc2[nH]c(=O)oc2c1 (stereo not drawn) [Compound 196, 6-((1-((5-chloropyridin-2-yl)methyl)-3-oxoisoindolin-2-yl)methyl)benzo[d]oxazol-2(3H)-one]"
0.5 to 5 µM,A (A>3),,"O=C1c2ccccc2C(Cc2cccc3ncoc23)N1Cc1ccc2[nH]c(=O)oc2c1 (stereo not drawn) [Compound 218, 6-((1-(benzo[d]oxazol-7-ylmethyl)-3-oxoisoindolin-2-yl)methyl)benzo[d]oxazol-2(3H)-one]"
≥ 5 µM,B (3≥B>2),,"CC(C)c1cccnc1CC1c2ccccc2C(=O)N1Cc1ccc2[nH]c(=O)oc2c1 (stereo not drawn) [Compound 181, 6-((1-((3-isopropylpyridin-2-yl)methyl)-3-oxoisoindolin-2-yl)methyl)benzo[d]oxazol-2(3H)-one]"
0.5 to 5 µM,B (3≥B>2),,"Cc1ncccc1CC1c2ccccc2C(=O)N1Cc1ccc2[nH]c(=O)oc2c1 (stereo not drawn) [Compound 165, 6-((1-((2-methylpyridin-3-yl)methyl)-3-oxoisoindolin-2-yl)methyl)benzo[d]oxazol-2(3H)-one]"
0.5 to 5 µM,B (3≥B>2),,"O=C1c2ccccc2C(Cc2cc(F)ccn2)N1Cc1ccc2[nH]c(=O)oc2c1 (stereo not drawn) [Compound 233, 6-((1-((4-fluoropyridin-2-yl)methyl)-3-oxoisoindolin-2-yl)methyl)benzo[d]oxazol-2(3H)-one]"
0.5 to 5 µM,B (3≥B>2),,"O=C1c2ccccc2C(CC2CCCC2)N1Cc1ccc2[nH]c(=O)oc2c1 (stereo not drawn) [Compound 252, 6-((1-(cyclopentylmethyl)-3-oxoisoindolin-2-yl)methyl)benzo[d]oxazol-2(3H)-one]"
≥ 5 µM,B (3≥B>2),,"Cc1cc(CC2c3ccccc3C(=O)N2Cc2ccc3[nH]c(=O)oc3c2)ccn1 (stereo not drawn) [Compound 179, 6-((1-((2-methylpyridin-4-yl)methyl)-3-oxoisoindolin-2-yl)methyl)benzo[d]oxazol-2(3H)-one]"
≥ 5 µM,B (3≥B>2),,"CC1c2c(cccc2C2CC2)C(=O)N1Cc1ccc2[nH]c(=O)oc2c1 (stereo not drawn) [Compound 245, 6-((4-cyclopropyl-3-methyl-1-oxoisoindolin-2-yl)methyl)benzo[d]oxazol-2(3H)-one]"
≥ 5 µM,C (2≥C),,"CC1c2ccccc2C(=O)N1Cc1cc(F)c2[nH]nnc2c1 (stereo not drawn) [Compound 290, 2-((7-fluoro-1H-benzo[d][1,2,3]triazol-5-yl)methyl)-3-methylisoindolin-1-one]"
≥ 5 µM,B (3≥B>2),,"CNC(=O)c1ccc2c(c1)C(C)N(Cc1ccc3[nH]c(=O)oc3c1)C2=O (stereo not drawn) [Compound 92, N,3-dimethyl-1-oxo-2-((2-oxo-2,3-dihydrobenzo[d]oxazol-6-yl)methyl)isoindoline-5-carboxamide]"
< 0.5 µM,A (A>3),,"Cn1cnc(CC2c3ccccc3C(=O)N2Cc2ccc3[nH]c(=O)oc3c2)c1Cl (stereo not drawn) [Compound 249, 6-((1-((5-chloro-1-methyl-1H-imidazol-4-yl)methyl)-3-oxoisoindolin-2-yl)methyl)benzo[d]oxazol-2(3H)-one]"
0.5 to 5 µM,A (A>3),,"COc1ccc(CC2c3ccccc3C(=O)N2Cc2ccc3[nH]c(=O)oc3c2)cc1 (stereo not drawn) [Compound 213, 6-((1-(4-methoxybenzyl)-3-oxoisoindolin-2-yl)methyl)benzo[d]oxazol-2(3H)-one]"
,B (3≥B>2),≥ 5 µM,"O=C1c2ccccc2C(Cc2ncccc2Br)N1Cc1ccn2c(CO)nnc2c1 (stereo not drawn) [Compound 323, 3-((3-bromopyridin-2-yl)methyl)-2-((3-(hydroxymethyl)-[1,2,4]triazolo[4,3-a]pyridin-7-yl)methyl)isoindolin-1-one]"
,B (3≥B>2),0.5 to 5 µM,"Cc1onc(C#N)c1C(O)C1c2ccccc2C(=O)N1Cc1ccc2[nH]nnc2c1 (stereo not drawn) [Compound 374, 4-((2-((1H-benzo[d][1,2,3]triazol-5-yl)methyl)-3-oxoisoindolin-1-yl)(hydroxy)methyl)-5-methylisoxazole-3-carbonitrile]"

# The next lines start with the compound.
Structure (SMILES),EC50 [1],Enzymatic Emax,EC50 [2]
"Cn1ncc(Cl)c1CC1c2ccccc2C(=O)N1CC1CC2(COC2)C1 (stereo not drawn) [Compound 564, 2-((2-oxaspiro[3.3]heptan-6-yl)methyl)-3-((4-chloro-1-methyl-1H-pyrazol-5-yl)methyl)isoindolin-1-one]",,C (2≥C),≥ 5 µM
"COC(C)(C)c1ccc2c(c1)C(Cc1c(Cl)cnn1C)N(Cc1ccc3[nH]nnc3c1)C2=O (stereo not drawn) [Compound 396, 2-((1H-benzo[d][1,2,3]triazol-5-yl)methyl)-3-((4-chloro-1-methyl-1H-pyrazol-5-yl)methyl)-5-(2-methoxypropan-2-yl)isoindolin-1-one]",,B (3≥B>2),0.5 to 5 µM
"O=C1c2ccccc2C(Cc2ncccc2Br)N1[C@H]1C[C@H](c2c[nH]nn2)C1 (stereo partly drawn) [Compound 403, 2-((1r,3r)-3-(1H-1,2,3-triazol-4-yl)cyclobutyl)-3-((3-bromopyridin-2-yl)methyl)isoindolin-1-one]",,C (2≥C),≥ 5 µM
"Cn1ncc(Cl)c1CC1c2ccccc2C(=O)N1Cc1nn[nH]c1F (stereo not drawn) [Compound 630, 3-((4-chloro-1-methyl-1H-pyrazol-5-yl)methyl)-2-((5-fluoro-1H-1,2,3-triazol-4-yl)methyl)isoindolin-1-one]",,C (2≥C),≥ 5 µM
"O=C1c2sc(Br)nc2CN1Cc1ccc(O)cc1 [Compound 447, 2-bromo-5-(4-hydroxybenzyl)-4,5-dihydro-6H-pyrrolo[3,4-d]thiazol-6-one]",,B (3≥B>2),≥ 5 µM
"Cc1ccc2c(c1)C(=O)N(Cc1ccc(O)cc1)C2 [Compound 32, 2-(4-hydroxybenzyl)-6-methylisoindolin-1-one]",≥ 5 µM,A (A>3),
"Cn1ncc(Cl)c1CC1c2cccc(CC#N)c2C(=O)N1CC1CC2(CNC(=O)O2)C1 (stereo not drawn) [Compound 432, 2-(1-((4-chloro-1-methyl-1H-pyrazol-5-yl)methyl)-3-oxo-2-((6-oxo-5-oxa-7-azaspiro[3.4]octan-2-yl)methyl)isoindolin-4-yl)acetonitrile]",,B (3≥B>2),≥ 5 µM
"Cn1cc(C#CCN2C(=O)c3ccccc3C2Cc2c(Cl)cnn2C)cn1 (stereo not drawn) [Compound 501, 3-((4-chloro-1-methyl-1H-pyrazol-5-yl)methyl)-2-(3-(1-methyl-1H-pyrazol-4-yl)prop-2-yn-1-yl)isoindolin-1-one]",,C (2≥C),0.5 to 5 µM
"O=C1Cc2ccccc2CN1Cc1ccc(O)cc1 [Compound 10, 2-(4-hydroxybenzyl)-1,4-dihydroisoquinolin-3(2H)-one]",≥ 5 µM,B (3≥B>2),
"O=C1c2ccccc2C(Cc2ncccc2Br)N1CCNc1c[nH]nn1 (stereo not drawn) [Compound 456, 2-(2-((1H-1,2,3-triazol-4-yl)amino)ethyl)-3-((3-bromopyridin-2-yl)methyl)isoindolin-1-one]",,C (2≥C),≥ 5 µM
"Cn1ncc(Cl)c1CC1c2ccccc2C(=O)N1C/C=C/c1nn[nH]c1Cl (stereo not drawn) [Compound 525, (E)-3-((4-chloro-1-methyl-1H-pyrazol-5-yl)methyl)-2-(3-(5-chloro-1H-1,2,3-triazol-4-yl)allyl)isoindolin-1-one]",,C (2≥C),≥ 5 µM
"COc1ccc(CN2C(Cc3c(Cl)cnn3C)c3ccccc3S2(=O)=O)cn1 (stereo not drawn) [Compound 642, 3-((4-chloro-1-methyl-1H-pyrazol-5-yl)methyl)-2-((6-methoxypyridin-3-yl)methyl)-2,3-dihydrobenzo[d]isothiazole 1,1-dioxide]",,B (3≥B>2),≥ 5 µM
"COc1ccc2c(c1)C(=O)N(Cc1ccc(O)cc1)C2=O [Compound 30, 2-(4-hydroxybenzyl)-5-methoxyisoindoline-1,3-dione]",0.5 to 5 µM,A (A>3),
"Cc1n[nH]cc1/C=C(/F)CN1C(=O)c2ccccc2C1Cc1c(Cl)cnn1C (stereo not drawn) [Compound 504, (E)-3-((4-chloro-1-methyl-1H-pyrazol-5-yl)methyl)-2-(2-fluoro-3-(3-methyl-1H-pyrazol-4-yl)allyl)isoindolin-1-one]",,B (3≥B>2),0.5 to 5 µM
"O=C1N[C@H]2CCC(CN3C(=O)c4ccccc4C3Cc3ncccc3Br)C[C@@H]2O1 (relative stereo) [Compound 466, trans-6-((1-((3-bromopyridin-2-yl)methyl)-3-oxoisoindolin-2-yl)methyl)hexahydrobenzo[d]oxazol-2(3H)-one]",,C (2≥C),≥ 5 µM
